# Source: ChEMBL document CHEMBL4680315, “Synthesis and anticancer potential of novel 5,6-oxygenated and/or halogenated steroidal d-homo lactones” (Bioorg Med Chem, 2021)
# pIC50: −log10 of the molar value. Active and inactive are the calls of the source. The calls are words filed in the database; no cut-off is given here.
# How the values were obtained:
# MRC5 = assay: Cytotoxicity against human MRC5 cells assessed as cell growth inhibition measured after 72 hrs by MTT assay; format: cell-based; settings: MRC5, 72 h
# MDA-MB-231 [1] = assay: Cytotoxicity against human MDA-MB-231 cells assessed as cell growth inhibition measured after 72 hrs by MTT assay; format: functional, cell-based; settings: MDA-MB-231, 72 h
# HT-29 [2] = assay: Cytotoxicity against human HT-29 cells assessed as cell growth inhibition measured after 72 hrs by MTT assay; format: functional, cell-based; settings: HT-29, 72 h
# HeLa = assay: Cytotoxicity against human Hela cells assessed as cell growth inhibition measured after 72 hrs by MTT assay; format: functional, cell-based
# A549 [3] = assay: Cytotoxicity against human A549 cells assessed as cell growth inhibition measured after 72 hrs by MTT assay; format: functional, cell-based; settings: A549, 72 h
# PC-3 = assay: Cytotoxicity against human PC-3 cells assessed as cell growth inhibition measured after 72 hrs by MTT assay; format: functional, cell-based; settings: PC-3, 72 h
# [4] = target: Estrogen receptor beta (Homo sapiens) (UniProt Q92731); assay: Binding affinity to EYFP-tagged human ERbeta-LBD expressed in Saccharomyces cerevisiae FY250 strain assessed as fluorescence intensity at 10 uM incubated for 14 to 16 hrs by fluorescence spectroscopy based fluorescence microscopy relative to control; settings: time 14-16 hrs
# MCF7 = assay: Cytotoxicity activity against human MCF7 assessed as inhibition of cell growth measured after 72 hrs by MTT assay; format: functional, cell-based; settings: MCF7, 72 h
# MDA-MB-231 [5] = assay: Induction of apoptosis in human MDA-MB-231 cells assessed as late apoptotic cells by measuring red colour signal measured after 72 hrs by fluorescent double-staining method; format: functional, cell-based
# A549 [6] = assay: Induction of apoptosis in human A549 cells assessed as late apoptotic cells by measuring red colour signal measured after 72 hrs by fluorescent double-staining method; format: functional, cell-based
# HT-29 [7] = assay: Induction of apoptosis in human HT-29 cells assessed as late apoptotic cells by measuring red colour signal measured after 72 hrs by fluorescent double-staining method; format: functional, cell-based
# [8] = target: T1, Estrogen receptor (Homo sapiens) (UniProt P03372); assay: Binding affinity to EYFP-tagged human ERalpha-LBD expressed in Saccharomyces cerevisiae FY250 strain assessed as fluorescence intensity at 10 uM incubated for 14 to 16 hrs by fluorescence spectroscopy based fluorescence microscopy relative to control; settings: time 14-16 hrs
# T1 sequence (whole entry): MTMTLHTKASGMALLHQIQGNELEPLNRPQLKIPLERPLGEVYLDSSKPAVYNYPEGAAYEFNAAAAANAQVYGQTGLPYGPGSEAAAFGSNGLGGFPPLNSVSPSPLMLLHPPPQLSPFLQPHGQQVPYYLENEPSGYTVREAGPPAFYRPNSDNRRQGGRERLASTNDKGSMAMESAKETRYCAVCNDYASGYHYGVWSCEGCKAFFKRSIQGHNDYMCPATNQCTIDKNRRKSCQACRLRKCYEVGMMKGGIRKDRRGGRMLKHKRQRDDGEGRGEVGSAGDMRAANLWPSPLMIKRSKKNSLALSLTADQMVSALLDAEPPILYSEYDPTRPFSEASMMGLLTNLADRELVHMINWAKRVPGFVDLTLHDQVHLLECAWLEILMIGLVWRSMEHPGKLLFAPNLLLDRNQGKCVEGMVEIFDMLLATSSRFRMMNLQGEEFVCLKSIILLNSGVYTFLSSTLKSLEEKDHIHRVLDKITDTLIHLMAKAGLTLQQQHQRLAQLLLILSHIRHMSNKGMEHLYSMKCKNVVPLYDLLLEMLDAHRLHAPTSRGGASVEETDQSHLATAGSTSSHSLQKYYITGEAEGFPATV
# Estrogen receptor beta (Homo sapiens), sequence (Q92731 whole entry, the tested form may be a part): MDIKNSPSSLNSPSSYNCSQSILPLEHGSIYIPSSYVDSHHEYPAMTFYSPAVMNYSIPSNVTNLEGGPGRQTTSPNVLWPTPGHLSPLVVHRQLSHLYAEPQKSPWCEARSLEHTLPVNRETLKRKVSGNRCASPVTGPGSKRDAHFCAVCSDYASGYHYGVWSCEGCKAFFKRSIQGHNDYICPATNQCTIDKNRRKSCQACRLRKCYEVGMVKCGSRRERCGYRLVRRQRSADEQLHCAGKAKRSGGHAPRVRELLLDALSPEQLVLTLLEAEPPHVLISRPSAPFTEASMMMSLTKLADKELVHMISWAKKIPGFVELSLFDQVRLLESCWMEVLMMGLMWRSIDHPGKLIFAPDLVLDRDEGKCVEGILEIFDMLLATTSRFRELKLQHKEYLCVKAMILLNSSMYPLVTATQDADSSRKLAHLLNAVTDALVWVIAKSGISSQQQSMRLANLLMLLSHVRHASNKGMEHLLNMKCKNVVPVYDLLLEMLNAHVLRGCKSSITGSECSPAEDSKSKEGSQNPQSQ
Structure (SMILES),pIC50 (MRC5),pIC50 (MDA-MB-231 [1]),pIC50 (HT-29 [2]),pIC50 (HeLa),pIC50 (A549 [3]),pIC50 (PC-3),Activity [4],pIC50 (MCF7),Activity (MDA-MB-231 [5]),Activity (A549 [6]),Activity (HT-29 [7]),Activity [8]
CC(=O)O[C@H]1CC[C@]2(C)[C@H]3CC[C@]4(C)COC(=O)C[C@H]4[C@@H]3C[C@@H](O)[C@@]2(O)C1,< 4.00,< 4.00,4.06,< 4.00,< 4.00,< 4.00,Active,< 4.00,–,–,–,–
CC(=O)O[C@H]1CC[C@]2(C)[C@H]3CC[C@]4(C)COC(=O)C[C@H]4[C@@H]3C[C@H](Br)[C@]2(O)C1,< 4.00,< 4.00,< 4.00,< 4.00,< 4.00,< 4.00,–,4.89,–,–,–,–
C[C@]12CC[C@H]3[C@@H](CC(=O)[C@@]4(O)C[C@@H](O)CC[C@]34C)[C@@H]1CC(=O)OC2,< 4.00,5.21,< 4.00,4.47,< 4.00,< 4.00,–,< 4.00,Active,–,–,–
CC(=O)O[C@H]1CC[C@]2(C)[C@H]3CC[C@]4(C)COC(=O)C[C@H]4[C@@H]3C[C@@H](O)[C@@]2(Cl)C1,< 4.00,< 4.00,4.14,4.43,< 4.00,< 4.00,–,< 4.00,–,–,–,–
CC(=O)O[C@H]1CC[C@]2(C)[C@H]3CC[C@]4(C)COC(=O)C[C@H]4[C@@H]3C[C@@H](Cl)[C@@]2(Cl)C1,< 4.00,4.62,4.96,4.59,4.81,< 4.00,–,< 4.00,Active,Active,Active,–
CC(=O)O[C@H]1CC[C@]2(C)[C@H]3CC[C@]4(C)COC(=O)C[C@H]4[C@@H]3C[C@@H](O)[C@@]2(Br)C1,< 4.00,4.58,< 4.00,4.87,4.58,< 4.00,–,4.06,Active,–,–,–
COc1cccc2c1C(=O)c1c(O)c3c(c(O)c1C2=O)C[C@@](O)(C(=O)CO)C[C@@H]3O[C@H]1C[C@H](N)[C@H](O)[C@H](C)O1 [DOXORUBICIN],6.62,–,–,–,< 4.00,4.07,–,–,–,–,–,–
CC(=O)O[C@H]1CC[C@]2(C)[C@H]3CC[C@]4(C)COC(=O)C[C@H]4[C@@H]3C[C@@H](OC(C)=O)[C@@]2(O)C1,< 4.00,4.51,< 4.00,5.06,< 4.00,5.18,–,4.90,Active,–,–,–
CC(=O)O[C@H]1CC[C@]2(C)[C@H]3CC[C@]4(C)COC(=O)C[C@H]4[C@@H]3C[C@@H](Br)[C@@]2(Br)C1,< 4.00,4.88,4.79,5.02,4.43,< 4.00,–,4.46,Active,Active,–,Active
C[C@]12CC[C@H]3[C@@H](CC(=O)[C@@]4(O)CC(=O)CC[C@]34C)[C@@H]1CC(=O)OC2,< 4.00,5.32,4.38,4.40,< 4.00,< 4.00,–,< 4.00,Active,–,–,Active
CO[C@@H]1C[C@H]2[C@@H]3CC(=O)OC[C@@]3(C)CC[C@@H]2[C@@]2(C)CC[C@H](O)C[C@]12O,< 4.00,5.47,< 4.00,4.57,< 4.00,4.97,–,4.13,Active,–,–,–
CO[C@]12C[C@@H](O)CC[C@]1(C)[C@H]1CC[C@]3(C)COC(=O)C[C@H]3[C@@H]1C[C@H]2O,< 4.00,5.36,< 4.00,5.15,< 4.00,4.60,–,< 4.00,Active,–,–,–
C[C@]12CCC(=O)C(O)=C1CC[C@@H]1[C@@H]2CC[C@]2(C)C(=O)CC[C@@H]12 [FORMESTANE],7.00,–,< 4.00,5.47,4.41,4.58,–,< 4.00,–,–,–,–
CC(=O)O[C@H]1CC[C@]2(C)[C@H]3CC[C@]4(C)COC(=O)C[C@H]4[C@@H]3C[C@@H](O)[C@@]2(F)C1,< 4.00,5.04,4.67,< 4.00,< 4.00,< 4.00,Active,4.37,Active,–,–,–
CC(=O)O[C@H]1CC[C@]2(C)[C@H]3CC[C@]4(C)COC(=O)C[C@H]4[C@@H]3CC(=O)[C@@]2(O)C1,< 4.00,4.62,< 4.00,< 4.00,< 4.00,< 4.00,–,4.09,Active,–,–,–
C[C@]12CC[C@H]3[C@@H](C[C@@H](O)[C@@]4(O)C[C@@H](O)CC[C@]34C)[C@@H]1CC(=O)OC2,< 4.00,4.86,5.03,4.03,6.00,< 4.00,–,5.06,Active,Active,Active,–
CC(=O)O[C@H]1CC[C@]2(C)[C@H]3CC[C@]4(C)COC(=O)C[C@H]4[C@@H]3C[C@@H]3O[C@@]32C1,< 4.00,5.21,< 4.00,4.00,< 4.00,< 4.00,–,< 4.00,Active,–,–,–
CC(=O)O[C@H]1CC[C@]2(C)[C@H]3CC[C@]4(C)COC(=O)C[C@H]4[C@@H]3C[C@H]3O[C@]32C1,< 4.00,4.47,4.85,4.77,< 4.00,< 4.00,–,4.00,Active,–,–,Active
